Test results: patent US6346260B1, “Microbicidal active ingredients” (Ciba Specialty Chemicals Corporation, priority 1999, dated 2002)

How the values were obtained:
Assay type in all cases: cell-based
[1] = system: Candida albicans ATCC 10231; test: MIC in microtitre plates, Candida albicans; conditions: Candida albicans, ATCC10231; Table 1; ATCC 10231; 48 hours at 37° C.; ≦20% growth; read-out: MIC Candida albicans
Method: (§1) Determination of Antimicrobial Activity in Accordance with the Microtitre Plate Method Determination of the Minimum Inhibitory Concentration (MIC value) in Microtitre Plates casein-soybean flour-peptone bouillon for the preparation of the precultures of the test bacteria and yeast. Candida albicans ATCC 10231 The test substances are predissolved in dimethyl sulfoxide (DMSO) and tested in a dilution series of 1:2. Bacteria and yeast are cultured overnight in CASO bouillon, the mould on mycological slant agar and rinsed off with 10 ml of 0.85% sodium chloride solution (+0.1% TritonX-100). All test organisms are adjusted to an organism count of 1-5*10^6 CFU/ml with 0.85% sodium chloride solution. The test substances are prepipetted into microtitre plates in an amount of 8 μl per well. Previously diluted test organism suspensions are diluted 1:100 in CASO bouillon (bacteria and yeast) and Sabouraud 2% glucose bouillon (mould) and added to the test substances in an amount of 192 μl per well. The test batches are incubated for 48 hours at 37° C. (bacteria and yeast) or for 5 days at 28° C. (mould). After incubation, the growth is determined by reference to the turbidity of the test batches (optical density) at 620 nm in a microplate reader. The minimum inhibitory concentration (MIC value) is the concentration of substance at which (compared with the growth of the control) an appreciable inhibition of the growth (≦20% growth) of the test organisms is ascertained. One microtitre plate is used for each test organism and substance concentration. All substances are tested in duplicate.

[2] = system: Pseudomonas aeruginosa CIP A-22; test: MIC in microtitre plates, Pseudomonas aeruginosa; conditions: Pseudomonas aeruginosa, CIPA22; Table 1; CIP A-22; 48 hours at 37° C.; ≦20% growth; read-out: MIC Pseudomonas aeruginosa
Method: as §1, with “Pseudomonas aeruginosa CIP A-22” for “Candida albicans ATCC 10231”

[3] = system: Corynebacterium xerosis ATCC 373; test: MIC in microtitre plates, Corynebacterium xerosis; conditions: ATCC373, Table 1, 48 hours at 37° C., ≦20% growth
Method: as §1, with “Corynebacterium xerosis” for “Candida albicans”, “373” for “10231”, “The minimum inhibitory concentration (MIC value) is the concentration of substance at which (compared with the growth of the control) an appreciable inhibition of the growth (≦20% growth) of the test organisms is ascertained. One microtitre plate is used for each test organism and substance concentration. All substances are tested in duplicate.” left out

[4] = system: Escherichia coli NCTC 8196; test: MIC in microtitre plates, Escherichia coli; conditions: Escherichia coli, NCTC8196; Table 1; NCTC 8196; 48 hours at 37° C.; ≦20% growth; read-out: MIC Escherichia coli
Method: as §1, with “Escherichia coli NCTC 8196” for “Candida albicans ATCC 10231”

MIC [1]: 100 to 500 µg/mL
MIC [2]: > 1000 µg/mL
MIC [3]: 50 µg/mL
MIC [4]: 50 µg/mL
Compound: O=C(CC(=O)c1ccccc1O)c1ccco1 [Compound of formula (101)]
